Data on one compound can be found in patent US6245758A, “Methods of use for peroxynitrite decomposition catalysts, pharmaceutical compositions therefor” (priority 1996, dated 2001).

Like-named read-outs stand apart in the source and are kept apart here.

The conditions of series [1]: Beckman et al. 1990, cited from earlier work.
For series [2], the system named is human dermal microvascular endothelial cells (HDME cells). Kind of series: Endothelial cell injury assay (51Cr release), authentic peroxynitrite. To be noted: 45 min, peroxynitrite 0-800 uM. The series is classed as cell-based. The protocol:
FIG. 5: Peroxynitrite-mediated human microvascular endothelial cell injury. Authentic peroxynitrite was overlaid directly onto to ^51 Cr-labeled HMDE cells grown in 96-well cell culture plates. After 45 min the amount of specific cell injury was determined and correlated to peroxynitrite concentration by least squares regression line. Values represent the average of three replicates +/-SEM.
FIG. 6: Peroxynitrite catalysts, Fe(TMPyP) (triangle) and Ni(II)dienoN4)PF6 (circle) were added to HDME cells in the cell injury assay immediately before the addition of authentic peroxynitrite. After 45 min, the amount of specific cell injury was assessed by the amount of radiolabel released into the medium. Values represent the average of three replicas +/-SEM. *p<0.01 vs. 0 uM control by Dunnett's t Test.
[…]: Human recombinant tumor necrosis factor-alpha (TNF-a) was obtained from Genzyme Corporation, Cambridge, MA. Human recombinant complement C5a and L-arginine (L-arg) was purchased from Sigma Chemical Company, St. Louis, Mo. Authentic peroxynitrite in 50 mM NaOH was prepared as described above. […]
Endothelial Cell Injury Assays: The cytotoxic effects of stimulated neutrophils or peroxynitrite on endothelial cells was determined using a ^51 Cr-release assay as described by Moldow (Moldow et. al. Methods Enzymol., 105, 378-385, [1984]). […]

For series [3], the system named is CuZnSOD. The experiment in a line: Inactivation of CuZnSOD by peroxynitrite (stopped flow superoxide dismutase activity). To be noted: peroxynitrite 0-100 uM.
Protocol: Stock solutions of bovine liver CuZnSOD (DDI Pharmaceuticals Inc., Mountain View CA) were prepared by dissolving -1.0 mg of enzyme in 10 mL of 50 mM potassium phosphate buffer at a pH=7.4. […] All kobs were the average of triplicate runs using a stopped flow spectrophotometer manufactured by Kinetic Instruments Inc. (Ann Arbor, Mich.) and was interfaced to a MAC IICX personal computer.
Inactivation of CuZn SOD by peroxynitrite.
Inactivation of peroxynitrite was performed by aloquating 1.0 mL of stock CuZn SOD solution into 50 mM potassium phosphate buffer pH=7.4 such that a final assay volume of 10 mL is achieved after addition of peroxynitrite and EDTA solutions. To these assay solution was added various amounts of peroxynitrite (25 mM stock solution) such that the final concentration of peroxynitrite in the assay varied from 0, 25, 50, 75 and 100 uM. After the addition of peroxynitrite, 100 uL of a 2.5 mM stock EDTA solution was added to each assay solution such that the final concentration of EDTA was 250 uM. Each solution was then assayed by stopped flow analysis for superoxide dismutase activity.
For series [4], the system named is RAW and P815 cells. The experiment in a line: Comparison of increasing PN doses on RAW and P815 cells. The series is classed as cell-based, murine. To be noted: data not shown. Here is the method: (§1) Protocol for Cell Protection Assays using Peroxynitrite Decomposition Catalysts: A cell viability assay was established to rapidly assess the efficacy of peroxynitrite(PN) catalysts in protecting cells from PN25 mediated injury and death. The peroxynitrite challenge consisted of a pulse of synthetic PN added exogenously to cells. In order to better assess the efficacy of PN catalysts in protecting cells from PN-mediated damage, a quantity of peroxynitrite(in 50 mM NaOH) determined to cause maximal injury(100%) was added as an exogenous pulse to each well of cells in the presence or absence of catalyst. The NaOH vehicle was not toxic by itself.
Cells(RAW 264.7 cells or P815 mastocytoma cells; American Type Culture Collection, Rockville, Md.) were plated to confluence on 96-well tissue culture plates. Each well is washed twice with Dulbecco's phosphate buffered saline(DPBS; GIBCO BRL, Grand Island, N.Y.) to remove protein and other serum components which might react with the exogenous peroxynitrite. […] PN is next placed into separate wells at increasing concentrations and cell viability monitored. […]
Cell injury is measured as follows. […] The amount of fluorescent product in 100 μl of conditioned medium from each well of cells is then measured with an IDEXX fluorescent plate reader (gain setting of 1%) at an emission wavelength of 575 nm after exciting at 545 nm. […]

Series [5] can be described thus: Natural background decomposition of peroxynitrite. To be noted: 22 ° C, 100 mM potassium phosphate pH=7.4. Format: physicochemical.
Protocol: Kinetic measurements were made on an OLIS Rapid Scanning Stopped-Flow Spectrometer (On-Line Instrument Systems Inc., Bogart, Ga.)) using the OLISRSM-1000 Operating system for data acquisition and manipulation.
Thus, in a typical experiment the natural background decomposition rate of sodium peroxynitrite was determined as follows. A 24 mM stock solution of sodium peroxynitrite in 50 mM NaOH is load into the small volume syringe and 100 mM potassium phosphate pH=7.4 is charged into the large volume syringe of the stopped-flow spectrophotometer. All stopped -flow measurements were made at 22 ° C. Injection of the solutions into the sample compartment results in ~25 fold dilution of the stock sodium peroxynitrite. […] To test for catalytic peroxynitrite decomposition activity, the metal complex was dissolved in 100 mM potassium phosphate buffer pH=7.4 and loaded into the large syringe and the decomposition of peroxynitrite was monitored as described above. The catalytic rate constant (kcat M-1 sec^-1) for the complexes tested was determined by varying the complex concentration and plotting kobs vs [complex] […] The kobs were obtained from averages of three stopped flow analysis at each catalyst concentration.
Series [6] has as its system RAW 264.7 cells. Kind of series: Cell protection assay, Alamar Blue viability after peroxynitrite challenge. The series is classed as cell-based, murine. The settings on record: RAW 264.7; PN dose of FIG. 8 experiment. Here is the method:
FIG. 8: Comparison of Ni and Fe Catalyst Protection of RAW Cells from PN(peroxynitrite)-mediated Injury. RAW 264.7 cells were plated at approximately 2×10^5 per well of a 96-well plate. […] Each condition represents the mean of 4 wells ±sem.
FIG. 9: Protection from PN-mediated RAW Cell Injury by Fe Catalysts. Cells were treated with 500 micromolar PN in the presence or the absence of the following catalysts: FeTMPyP, FeTMPS, FeTPPS. Cell viability was monitored as described in the text and figure legends 1, 2 and 3. Values represent the mean of 4 determinations ±sem.
as §1
Cells(RAW 264.7 cells or P815 mastocytoma cells; American Type Culture Collection, Rockville, Md.) were plated to confluence on 96-well tissue culture plates. Each well is washed twice with Dulbecco's phosphate buffered saline(DPBS; GIBCO BRL, Grand Island, N.Y.) to remove protein and other serum components which might react with the exogenous peroxynitrite. To each well is then added 200 μl of DPBS. PN is next placed into separate wells at increasing concentrations and cell viability monitored. The dose at which maximal cell death is attained is then utilized for the catalyst protection assessment.
Phosphate-buffered saline (200 uL) containing increasing concentrations of catalyst is next placed into individual wells of cells. The maximal dose of PN is subsequently administered to all wells of cells. After 15 minutes, the medium is removed from each well and the cells are either allowed to recover overnight in Earles minimum essential medium without phenol red and supplemented with 10% fetal bovine serum or alternatively the plate of cells is assayed that day for mitochondrial integrity using the Alamar Blue viability assay(Alamar Biosciences, Inc.; Sacramento, Calif.). In either case, cells are incubated at 37° C. in 5% CO2.
Cell injury is measured as follows. Briefly, 10% Alamar Blue(v/v) in Earles MEM with 10% FBS is added to each well of cells for 1-2h. Cell metabolism of the dye generates a fluorescent product which is directly related to the number of viable cells. Moreover, the production of the fluorescent metabolite is linear for over 2 h. The amount of fluorescent product in 100 μl of conditioned medium from each well of cells is then measured with an IDEXX fluorescent plate reader (gain setting of 1%) at an emission wavelength of 575 nm after exciting at 545 nm. Viability is either given as absolute fluorescent units or as a percent of the value obtained for untreated cells(100%).
For orientation: Alamar Blue is a resazurin reagent that responds to reducing activity.

As to `O=NOO` [peroxynitrite, sodium peroxynitrite], the “t1/2 of decomposition of sodium peroxynitrite” value in series [1] (37° C, pH=7.4) was 1.9 s; in series [5] it was 5.2 see. Besides, in series [1] (pH 7.4, 37° C), the “observed rate for the decomposition of peroxynitrite” value is on record as 3.6×10^-1 sec-i. For the same compound, the “endothelial cell injury by peroxynitrite” value in series [2] was “dose dependent increase in cell injury”. For the same compound, in series [3], the “inactivation of CuZnSOD” value is reported as “inactivates CuZnSOD enzyme in a concentration dependant manner”. In series [4], the “differential susceptibility of RAW and P815 cells to peroxynitrite-mediated injury” value is given as “no evidence for a differential susceptibility to peroxynitrite-mediated injury”. For the same compound, the “kobs of decomposition of sodium peroxynitrite” value in series [5] is 1.39×10^-1±0.15 sec^-1. For the same compound, in series [6], the “decrease in cell viability caused by PN” value was 50%.
